Series [1] deals with Mus musculus. Put plainly: Toxicity in albino CF-1 Mus musculus (mouse) assessed as motor impairment at 300 mg/kg measured after 4 hr by rotarod test. The conditions noted are these: in vivo. Type of series: organism-based. Set-up: dose 300 mg/kg.
Series [2] relates to Mus musculus. Description: Toxicity in albino CF-1 Mus musculus (mouse) assessed as motor impairment at 300 mg/kg measured after 0.5 hr by rotarod test. The class given is organism-based. Set-up: dose 300 mg/kg. To be noted: in vivo.
For series [3], the species on record is Mus musculus. Put plainly: Anticonvulsant activity in albino CF-1 Mus musculus (mouse) assessed as minimum dose required to protect half or more animals against maximal electroshock-induced seizures measured after 4 hr by electroshock seizure method. Type of series: functional. To be noted: albino CF-1, 4 h, read-out: MED. For orientation: In the maximal electroshock model the usual endpoint is tonic extension of the hind limbs.

The species named for series [4] is Mus musculus. Description: Anticonvulsant activity in albino CF-1 Mus musculus (mouse) assessed as minimum dose required to protect half or more animals against maximal electroshock-induced seizures measured after 0.5 hr by electroshock seizure method. The conditions noted are these: albino CF-1, 0.5 h, read-out: MED. The class given is functional.
The subject of series [5] is Mus musculus. Description: Induction of CNS depressant activity in albino CF-1 Mus musculus (mouse) assessed as increase in immobility at 100 mg/kg, ip measured after 30 min by Porsolt's force swim pool method. The class given is organism-based, Central nervous system. Details: dose 100 mg/kg, route intraperitoneal. To be noted: in vivo, 0.5 h.
For series [6], the system named is Mus musculus. Description: Induction of CNS depressant activity in albino CF-1 Mus musculus (mouse) assessed as duration of immobility at 100 mg/kg, ip measured after 30 min by Porsolt's force swim pool method (reference value: 52.7 +/-0.70 secs). To be noted: in vivo, 0.5 h. Type of series: organism-based, Central nervous system. Details: dose 100 mg/kg, route intraperitoneal.

The species entered for series [7] is Mus musculus. Description: Toxicity in albino CF-1 Mus musculus (mouse) assessed as minimum dose required to induce motor impairment in half or more animals measured after 0.5 hr by rotarod test. The class given is organism-based. The conditions noted are these: in vivo.
For series [8], the species on record is Mus musculus. Description: Toxicity in albino CF-1 Mus musculus (mouse) assessed as minimum dose required to induce motor impairment in half or more animals measured after 4 hr by rotarod test. The conditions noted are these: in vivo. Type of series: organism-based.
The subject of series [9] is Mus musculus. Put plainly: Anticonvulsant activity in albino CF-1 Mus musculus (mouse) assessed as protection against maximal electroshock-induced seizures at 300 mg/kg measured after 0.5 hr by electroshock seizure method. Details: dose 300 mg/kg. Type of series: functional, organism-based.

Activity calls are given as the source filed them. The calls are words filed in the database; no cut-off is given here.

In the case of `CCCCOc1cccc(/C=N/n2c(-c3ccccc3)nc3ccccc3c2=O)c1`, the Activity result in [1] and in series [2] was “Non-toxic” in each case. For the same compound, the figures for the minimal effective dose in [3] and in series [4] were 100 mg/kg and 300 mg/kg, respectively.

`CC(C)Oc1cccc(/C=N/n2c(-c3ccccc3)nc3ccccc3c2=O)c1`: the Activity entry in series [1] and in [2] was “Non-toxic” each time. In addition, the minimal effective dose in series [3] and in [4] was 300 mg/kg in each case.

Consider `NC(=O)N1c2ccccc2C=Cc2ccccc21` [CARBAMAZEPINE], for which the Activity in series [5] was 56.35%. For the same compound, the Time in series [6] was determined as 82.4 s. The values for the MED in series [7] and in series [8] were 300 mg/kg and 100 mg/kg, respectively. Besides, the minimal effective dose in series [3] and in [4] was 30 mg/kg each time.

With `O=c1c2ccccc2nc(-c2ccccc2)n1/N=C/c1cccc(OCc2ccccc2)c1`, the outcome in series [9] was inactive. In addition, the Activity entry in series [2] is recorded as “Non-toxic”. For the same compound, in series [3], the minimal effective dose turned out to be 300 mg/kg. Besides, in series [8], the MED came out at 300 mg/kg.

For `C=CCOc1cccc(/C=N/n2c(-c3ccccc3)nc3ccccc3c2=O)c1`, the Activity entry in [1] and in [2] was “Non-toxic” each time. In addition, the minimal effective dose in [3] and in series [4] was 300 mg/kg throughout.

With `CCCOc1cccc(/C=N/n2c(-c3ccccc3)nc3ccccc3c2=O)c1`, the Activity in series [5] is given as 52.18%; in [1], “Non-toxic”; in series [2] it was “Non-toxic”. The Time in series [6] turned out to be 80.2 s. Moreover, the minimal effective dose in series [3] stood at 30 mg/kg; in series [4] it was 100 mg/kg.

Take `O=C1NC(=O)C(c2ccccc2)(c2ccccc2)N1` [PHENYTOIN]: the Activity entry in [2] is reported as “Non-toxic”. Also, the minimal effective dose in series [3] and in [4] was 30 mg/kg throughout. Also, the MED in [8] is 100 mg/kg.

As to `CCOc1cccc(/C=N/n2c(-c3ccccc3)nc3ccccc3c2=O)c1`, the Activity was 29.6% in series [5], “Non-toxic” in [1] and “Non-toxic” in [2]. Moreover, the Time in series [6] is reported as 68.3 s. For the same compound, the minimal effective dose in series [3] and in series [4] was 100 mg/kg each time.

With `O=c1c2ccccc2nc(-c2ccccc2)n1/N=C/c1cccc(O)c1`, the outcome in series [9] was inactive. In addition, the Activity entry in series [1] and in series [2] was “Non-toxic” each time. Besides, the minimal effective dose in series [3] is 100 mg/kg.

On to `C=CCCOc1cccc(/C=N/n2c(-c3ccccc3)nc3ccccc3c2=O)c1`, for which the Activity in series [5] is 110.81%; in [1], “Non-toxic”; in series [2], “Non-toxic”. Further, in [6], the Time turned out to be 111.1 s. The minimal effective dose in series [3] is 100 mg/kg; in series [4], 300 mg/kg.

On to `COc1cccc(/C=N/n2c(-c3ccccc3)nc3ccccc3c2=O)c1`, for which, in series [9], the result was inactive. In addition, the Activity entry in series [1] and in series [2] was “Non-toxic” throughout. Also, the minimal effective dose in series [3] came out at 100 mg/kg.

These data come from ChEMBL document CHEMBL3044686, “Synthesis and biological evaluation of some new quinazolin-4(3H)-ones derivatives as anticonvulsants” (Med Chem Res, 2013).
